The source made the active and inactive calls.
How the values were obtained:
Format in all cases: functional
[1] = target: Casein kinase II subunit alpha (Homo sapiens, UniProt P68400)
[2] = target: Serine/threonine-protein kinase pim-1 (Homo sapiens, UniProt P11309)
[3] = target: Serine/threonine-protein kinase BRSK1 (Homo sapiens, UniProt Q8TDC3);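 note: measured within a kinome-wide kinase panel, with the target listed as KIAA1811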
[4] = target: Serine/threonine-protein kinase pim-3 (Homo sapiens, UniProt Q86V86);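 note: value obtained as one member of a broad kinase panel profiling effort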
[5] = target: Platelet-derived growth factor receptor alpha (Homo sapiens, UniProt P16234); test: Navigating the Kinome. Panel member name: PDGFRA
[6] = target: Dual specificity tyrosine-phosphorylation-regulated kinase 1B (Homo sapiens, UniProt Q9Y463); test: Navigating the Kinome. Panel member name: DYRK1B
[7] = target: Leucine-rich repeat serine/threonine-protein kinase 2 (Homo sapiens, UniProt Q5S007);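 note: value from a broad kinome-wide panel profiling study in which LRRK2 was one of the kinases tested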
[8] = target: Mitogen-activated protein kinase 13 (Homo sapiens, UniProt O15264)
[9] = target: Tyrosine-protein kinase FRK (Homo sapiens, UniProt P42685);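 note: FRK tested as one member of a kinome panel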
[10] = target: High affinity nerve growth factor receptor (Homo sapiens, UniProt P04629);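 note: NTRK1 tested as one member of a kinome-wide profiling panel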
[11] = target: Tyrosine-protein kinase JAK2 (Homo sapiens, UniProt O60674);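 note: JAK2 tested as one member of a kinase panel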
[12] = target: Leukocyte tyrosine kinase receptor (Homo sapiens, UniProt P29376); test: Navigating the Kinome. Panel member name: LTK
Activin receptor type-1 = Activin receptor type-1 (Homo sapiens, UniProt Q04771); test: Navigating the Kinome. Panel member name: ACVR1
[13] = target: Cyclin-dependent kinase 19 (Homo sapiens, UniProt Q9BWU1); test: Navigating the Kinome. Panel member name: CDC2L6
[14] = target: ALK tyrosine kinase receptor (Homo sapiens, UniProt Q9UM73);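 note: ALK tested as one member of a kinase panel screen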
Wee1-like protein kinase = Wee1-like protein kinase (Homo sapiens, UniProt P30291); test: Navigating the Kinome. Panel member name: WEE1
[15] = target: Tyrosine-protein kinase SYK (Homo sapiens, UniProt P43405)
[16] = target: Mitogen-activated protein kinase kinase kinase kinase 4 (Homo sapiens, UniProt O95819)
[17] = target: Serine/threonine-protein kinase D2 (Homo sapiens, UniProt Q9BZL6);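 note: measured against PRKD2 as one member of a kinome-wide kinase profiling panel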
[18] = target: Serine/threonine-protein kinase D3 (Homo sapiens, UniProt O94806);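 note: determined within a kinase panel screen, with PRKCN as the panel member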
[19] = target: Rho-associated protein kinase 1 (Homo sapiens, UniProt Q13464);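 note: measured within a broad kinome-wide panel profiling many kinases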

Measured: Ki

ALK tyrosine kinase receptor, sequence (Q9UM73 whole entry): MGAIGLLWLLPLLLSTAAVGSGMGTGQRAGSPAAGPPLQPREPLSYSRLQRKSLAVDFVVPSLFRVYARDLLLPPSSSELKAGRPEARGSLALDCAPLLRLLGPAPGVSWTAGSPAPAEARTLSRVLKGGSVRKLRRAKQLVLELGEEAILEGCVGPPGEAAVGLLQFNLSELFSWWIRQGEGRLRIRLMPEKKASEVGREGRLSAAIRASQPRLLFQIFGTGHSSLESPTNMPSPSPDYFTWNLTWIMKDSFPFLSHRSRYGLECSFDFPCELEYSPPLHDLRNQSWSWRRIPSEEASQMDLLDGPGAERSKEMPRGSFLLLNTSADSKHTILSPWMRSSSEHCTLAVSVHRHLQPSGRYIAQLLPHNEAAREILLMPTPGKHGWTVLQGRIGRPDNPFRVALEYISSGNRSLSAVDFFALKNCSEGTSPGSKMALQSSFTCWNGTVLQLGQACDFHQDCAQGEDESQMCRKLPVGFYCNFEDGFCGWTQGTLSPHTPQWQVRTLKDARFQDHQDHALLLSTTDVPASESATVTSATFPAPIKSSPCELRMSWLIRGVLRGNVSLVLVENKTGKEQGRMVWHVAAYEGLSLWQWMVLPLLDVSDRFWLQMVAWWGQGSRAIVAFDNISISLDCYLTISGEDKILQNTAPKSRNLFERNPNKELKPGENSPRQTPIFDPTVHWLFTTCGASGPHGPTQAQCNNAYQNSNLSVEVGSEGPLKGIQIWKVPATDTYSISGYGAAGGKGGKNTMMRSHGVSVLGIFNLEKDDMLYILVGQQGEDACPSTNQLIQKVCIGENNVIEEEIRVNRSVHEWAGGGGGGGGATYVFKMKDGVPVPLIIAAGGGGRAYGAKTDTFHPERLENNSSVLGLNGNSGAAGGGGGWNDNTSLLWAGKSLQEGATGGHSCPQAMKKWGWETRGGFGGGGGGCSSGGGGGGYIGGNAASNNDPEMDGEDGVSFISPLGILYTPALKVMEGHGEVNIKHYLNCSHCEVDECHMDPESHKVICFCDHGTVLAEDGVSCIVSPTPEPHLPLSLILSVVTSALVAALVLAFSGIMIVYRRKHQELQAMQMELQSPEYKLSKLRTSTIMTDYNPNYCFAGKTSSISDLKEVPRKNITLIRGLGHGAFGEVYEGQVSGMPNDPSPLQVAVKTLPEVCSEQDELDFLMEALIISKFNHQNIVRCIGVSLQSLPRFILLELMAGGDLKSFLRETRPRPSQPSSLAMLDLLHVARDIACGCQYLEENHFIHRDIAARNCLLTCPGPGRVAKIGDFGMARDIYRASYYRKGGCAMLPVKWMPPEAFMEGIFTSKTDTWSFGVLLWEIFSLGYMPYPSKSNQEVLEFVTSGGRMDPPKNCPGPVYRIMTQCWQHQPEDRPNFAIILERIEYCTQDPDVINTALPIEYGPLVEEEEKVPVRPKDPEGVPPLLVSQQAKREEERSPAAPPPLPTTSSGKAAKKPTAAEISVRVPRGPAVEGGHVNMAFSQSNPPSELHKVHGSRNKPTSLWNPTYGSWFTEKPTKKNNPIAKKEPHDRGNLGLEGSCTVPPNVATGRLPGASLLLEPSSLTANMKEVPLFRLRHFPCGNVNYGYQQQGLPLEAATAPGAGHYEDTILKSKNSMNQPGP
Tyrosine-protein kinase JAK2, sequence (O60674 whole entry): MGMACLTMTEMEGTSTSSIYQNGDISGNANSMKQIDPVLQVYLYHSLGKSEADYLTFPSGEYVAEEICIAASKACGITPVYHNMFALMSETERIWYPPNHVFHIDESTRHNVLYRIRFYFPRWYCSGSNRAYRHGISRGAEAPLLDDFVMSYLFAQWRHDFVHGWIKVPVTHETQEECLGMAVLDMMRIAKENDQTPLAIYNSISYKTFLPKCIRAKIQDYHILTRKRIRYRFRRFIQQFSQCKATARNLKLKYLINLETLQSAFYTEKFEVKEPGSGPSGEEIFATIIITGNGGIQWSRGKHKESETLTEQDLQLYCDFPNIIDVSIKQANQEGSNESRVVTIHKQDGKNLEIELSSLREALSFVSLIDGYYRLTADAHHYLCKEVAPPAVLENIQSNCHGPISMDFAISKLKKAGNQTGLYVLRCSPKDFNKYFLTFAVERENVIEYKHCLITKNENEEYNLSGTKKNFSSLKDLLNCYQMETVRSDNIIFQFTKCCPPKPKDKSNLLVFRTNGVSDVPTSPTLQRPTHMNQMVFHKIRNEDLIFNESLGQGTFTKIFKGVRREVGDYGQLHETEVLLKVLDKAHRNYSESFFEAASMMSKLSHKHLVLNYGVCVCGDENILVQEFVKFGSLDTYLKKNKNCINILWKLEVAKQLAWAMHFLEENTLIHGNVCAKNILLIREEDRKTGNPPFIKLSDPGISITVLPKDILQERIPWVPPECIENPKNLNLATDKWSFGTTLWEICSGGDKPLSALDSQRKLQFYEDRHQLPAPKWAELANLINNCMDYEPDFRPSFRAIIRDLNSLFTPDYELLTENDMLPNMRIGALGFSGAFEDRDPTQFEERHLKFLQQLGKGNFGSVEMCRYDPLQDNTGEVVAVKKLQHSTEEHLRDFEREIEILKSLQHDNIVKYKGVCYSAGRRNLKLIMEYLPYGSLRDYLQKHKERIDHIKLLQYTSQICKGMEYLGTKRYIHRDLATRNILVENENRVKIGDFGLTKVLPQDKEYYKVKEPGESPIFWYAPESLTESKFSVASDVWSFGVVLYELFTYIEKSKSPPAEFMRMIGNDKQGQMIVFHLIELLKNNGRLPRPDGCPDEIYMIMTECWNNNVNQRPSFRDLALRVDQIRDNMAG
Dual specificity tyrosine-phosphorylation-regulated kinase 1B, sequence (Q9Y463 whole entry): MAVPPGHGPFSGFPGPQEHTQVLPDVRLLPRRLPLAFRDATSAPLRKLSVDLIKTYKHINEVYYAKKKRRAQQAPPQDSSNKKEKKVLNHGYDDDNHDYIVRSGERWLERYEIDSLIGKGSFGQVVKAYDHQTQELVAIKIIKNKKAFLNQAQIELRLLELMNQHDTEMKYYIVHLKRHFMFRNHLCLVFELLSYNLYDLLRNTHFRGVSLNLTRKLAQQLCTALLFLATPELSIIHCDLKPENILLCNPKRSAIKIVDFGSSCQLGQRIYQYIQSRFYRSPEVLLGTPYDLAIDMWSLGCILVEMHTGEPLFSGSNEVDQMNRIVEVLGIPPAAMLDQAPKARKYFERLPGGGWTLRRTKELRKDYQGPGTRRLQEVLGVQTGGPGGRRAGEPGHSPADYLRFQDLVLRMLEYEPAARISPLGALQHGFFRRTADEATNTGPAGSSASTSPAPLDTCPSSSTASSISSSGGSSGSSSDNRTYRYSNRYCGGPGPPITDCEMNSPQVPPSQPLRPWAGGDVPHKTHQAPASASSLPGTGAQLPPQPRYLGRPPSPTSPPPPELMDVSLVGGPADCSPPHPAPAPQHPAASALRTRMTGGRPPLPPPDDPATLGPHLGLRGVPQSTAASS
Platelet-derived growth factor receptor alpha, sequence (P16234 whole entry): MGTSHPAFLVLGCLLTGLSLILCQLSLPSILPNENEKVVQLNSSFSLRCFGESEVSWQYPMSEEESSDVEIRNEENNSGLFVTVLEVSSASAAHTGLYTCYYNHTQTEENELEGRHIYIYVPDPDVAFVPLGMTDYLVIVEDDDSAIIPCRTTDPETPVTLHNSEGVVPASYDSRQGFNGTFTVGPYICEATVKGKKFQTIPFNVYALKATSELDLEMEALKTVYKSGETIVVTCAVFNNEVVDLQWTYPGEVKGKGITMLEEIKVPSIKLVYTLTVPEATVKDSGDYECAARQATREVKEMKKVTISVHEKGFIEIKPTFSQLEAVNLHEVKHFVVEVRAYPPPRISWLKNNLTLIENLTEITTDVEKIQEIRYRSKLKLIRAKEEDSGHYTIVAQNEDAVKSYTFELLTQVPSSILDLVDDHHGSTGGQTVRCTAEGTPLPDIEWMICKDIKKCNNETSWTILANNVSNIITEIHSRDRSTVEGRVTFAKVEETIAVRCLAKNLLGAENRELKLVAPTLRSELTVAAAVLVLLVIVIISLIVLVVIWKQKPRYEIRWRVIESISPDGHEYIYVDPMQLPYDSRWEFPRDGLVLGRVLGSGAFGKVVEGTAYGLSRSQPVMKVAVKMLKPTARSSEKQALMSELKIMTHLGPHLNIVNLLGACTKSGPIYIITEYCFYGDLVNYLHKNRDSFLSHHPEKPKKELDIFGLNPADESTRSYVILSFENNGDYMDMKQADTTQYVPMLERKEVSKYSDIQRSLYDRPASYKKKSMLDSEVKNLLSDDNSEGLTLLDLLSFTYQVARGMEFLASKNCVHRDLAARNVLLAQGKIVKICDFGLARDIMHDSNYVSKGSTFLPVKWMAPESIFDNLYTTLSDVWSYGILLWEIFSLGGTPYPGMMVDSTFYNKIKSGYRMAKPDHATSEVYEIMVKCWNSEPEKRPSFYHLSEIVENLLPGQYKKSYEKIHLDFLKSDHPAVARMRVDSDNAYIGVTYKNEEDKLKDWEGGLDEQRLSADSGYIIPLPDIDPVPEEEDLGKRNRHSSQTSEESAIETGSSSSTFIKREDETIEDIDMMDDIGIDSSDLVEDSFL
Tyrosine-protein kinase FRK, sequence (P42685 whole entry): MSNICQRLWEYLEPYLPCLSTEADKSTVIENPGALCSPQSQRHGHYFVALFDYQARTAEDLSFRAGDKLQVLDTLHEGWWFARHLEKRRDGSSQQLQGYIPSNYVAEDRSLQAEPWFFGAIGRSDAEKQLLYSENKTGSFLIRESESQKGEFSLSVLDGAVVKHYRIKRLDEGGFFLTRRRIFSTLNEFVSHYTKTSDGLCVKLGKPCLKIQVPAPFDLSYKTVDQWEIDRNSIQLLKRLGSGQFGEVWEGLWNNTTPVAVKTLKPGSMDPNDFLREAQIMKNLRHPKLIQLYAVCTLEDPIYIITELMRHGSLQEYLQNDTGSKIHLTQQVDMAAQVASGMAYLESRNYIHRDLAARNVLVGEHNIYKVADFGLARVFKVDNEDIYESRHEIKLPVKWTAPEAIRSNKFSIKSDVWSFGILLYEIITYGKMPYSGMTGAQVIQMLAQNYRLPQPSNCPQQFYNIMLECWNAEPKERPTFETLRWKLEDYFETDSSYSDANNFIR

O=C1ON=C(c2ccc(Br)cc2)C1=Cc1ccc2c(c1)OCO2
active: [1] 1.58 µM | [2] 2 µM | [3] 10 µM | [4] 7.94 µM

COc1cccc(C(C)NC(=O)c2ccc(-c3ccncc3)cc2)c1 (stereo not drawn)
inactive: [5] > 2.51 µM | [6] > 2.51 µM | [7] > 2.51 µM | [8] > 7.94 µM | [9] > 2.51 µM | [10] > 2.51 µM | [11] > 2.51 µM | [12] > 2.51 µM | Activin receptor type-1 > 3.98 µM

Cc1ccc(NC(=O)Nc2ccc(-c3csc4c(-c5cnn(CC(=O)N(C)C)c5)cnc(N)c34)cc2)cc1
inactive: [13] > 100 µM
active: [14] 0.158 µM

Cc1cnc(Nc2ccc(N3CCN(C)CC3)cc2)nc1Nc1cccc(S(=O)(=O)NC(C)(C)C)c1
active: Wee1-like protein kinase 0.126 µM | [14] 0.501 µM

CCN(CC)CCOc1ccc(Nc2ncc3cc(-c4c(Cl)cccc4Cl)c(=O)n(C)c3n2)cc1 [PD-0166285]
active: [11] 0.0398 µM | [15] 0.0794 µM | [16] 0.0794 µM

NC(=O)c1ccc(N(C(N)=O)c2c(F)cccc2F)nc1-c1ccc(F)cc1F [VX-702]
active: [17] 5.01 µM | [18] 2.51 µM | [19] 2.51 µM

— ChEMBL document CHEMBL1201862, “PubChem BioAssay data set” (2004)
